# Columns and labels:
# human c-kit = biological target: T1, human c-kit (Homo sapiens, UniProt P10721); experiment: cKIT-Kinase HTRF-Assay (assay 4); format: biochemical; conditions: for IC50: GST-tagged kinase domain of human c-kit, 10 μM ATP; for Selectivity vs. cKit: IC50 assay 4/IC50 assay 2
# T1 construct: GST-tagged recombinant kinase domain of the human c-kit; GST; host or cells: SF-9 insect cells
# Protocol: Assay 4: cKIT-Kinase HTRF-Assay
# c-Kit-inhibitory activity of compounds of the present invention was quantified employing the c-kit HTRF assay as described in the following paragraphs. GST-tagged recombinant kinase domain of the human c-kit expressed in SF-9 cells was used as kinase. As substrate for the kinase reaction biotinylated poly-(Glu,Tyr) (Cis biointernational, France) was used.
# c-Kit was incubated for 30 min at 22° C. in the presence of different concentrations of test compounds in 5 μl assay buffer [50 mM Hepes/NaOH pH 7.0, 1 mM MgCl2, 5 mM MnCl2, 1.0 mM dithiothreitol, 0.1 mM sodium ortho-vanadate, 10 μM adenosine-tri-phosphate (ATP), 1.3 μg/ml substrate, 0.001% (v/v) Nonidet-P40 (Sigma), 1% (v/v) dimethylsulfoxide]. The concentration of c-kit was adjusted depending of the activity of the enzyme lot and was chosen appropriate to have the assay in the linear range. The reaction was stopped by the addition of 5 μl of a solution of HTRF detection reagents (0.1 μM streptavidine-XLent and 1 nM PT66-Eu-Chelate, an europium-chelate labelled anti-phospho-tyrosine antibody from Perkin Elmer) in an aqueous EDTA-solution (80 mM EDTA, 0.2% (w/v) bovine serum albumin in 50 mM HEPES/NaOH pH 7.0).
# (§1) The resulting mixture was incubated 1 h at 22° C. to allow the binding of the biotinylated phosphorylated peptide to the streptavidine-XLent and the PT66-Eu-Chelate. Subsequently the amount of phosphorylated substrate was evaluated by measurement of the resonance energy transfer from the PT66-Eu-Chelate to the streptavidine-XLent. Therefore, the fluorescence emissions at 620 nm and 665 nm after excitation at 350 nm was measured in a HTRF reader, e.g. a Rubystar (BMG Labtechnologies, Offenburg, Germany) or a Viewlux (Perkin-Elmer). The ratio of the emissions at 665 nm and at 622 nm was taken as the measure for the amount of phosphorylated substrate.
# Tie2 [1] = biological target: T2, Tie2 (Homo sapiens, UniProt Q02763); experiment: Tie2 ELISA assay (assay 1): cellular Tie2 autophosphorylation; format: cell-based; design: expressed in transfected cells; host or cells: CHO (DHFR-deficient), stably transfected; conditions: CHO cells stably transfected with Tie2, stimulated by angiopoietin-2; Tie2 autophosphorylation by sandwich-ELISA; read-out: Tie 2 activity (assay 1)
# Protocol: Assay 1: Tie2 ELISA Assay
# Cellular activity of compounds of the present invention as inhibitors of Tie2 kinase activity was measured employing a Tie2 ELISA assay as described in the following paragraphs. Herein CHO cell-cultures, which are stably transfected by known techniques with Tie2 using DHFR deficiency as selection marker, are stimulated by angiopoietin-2. The specific autophosphorylation of Tie2 receptors is quantified with a sandwich-ELISA using anti-Tie2 antibodies for catch and anti-phosphotyrosine antibodies coupled to HRP for detection. […]
# Target sequence in this assay (Q02763 23-1124): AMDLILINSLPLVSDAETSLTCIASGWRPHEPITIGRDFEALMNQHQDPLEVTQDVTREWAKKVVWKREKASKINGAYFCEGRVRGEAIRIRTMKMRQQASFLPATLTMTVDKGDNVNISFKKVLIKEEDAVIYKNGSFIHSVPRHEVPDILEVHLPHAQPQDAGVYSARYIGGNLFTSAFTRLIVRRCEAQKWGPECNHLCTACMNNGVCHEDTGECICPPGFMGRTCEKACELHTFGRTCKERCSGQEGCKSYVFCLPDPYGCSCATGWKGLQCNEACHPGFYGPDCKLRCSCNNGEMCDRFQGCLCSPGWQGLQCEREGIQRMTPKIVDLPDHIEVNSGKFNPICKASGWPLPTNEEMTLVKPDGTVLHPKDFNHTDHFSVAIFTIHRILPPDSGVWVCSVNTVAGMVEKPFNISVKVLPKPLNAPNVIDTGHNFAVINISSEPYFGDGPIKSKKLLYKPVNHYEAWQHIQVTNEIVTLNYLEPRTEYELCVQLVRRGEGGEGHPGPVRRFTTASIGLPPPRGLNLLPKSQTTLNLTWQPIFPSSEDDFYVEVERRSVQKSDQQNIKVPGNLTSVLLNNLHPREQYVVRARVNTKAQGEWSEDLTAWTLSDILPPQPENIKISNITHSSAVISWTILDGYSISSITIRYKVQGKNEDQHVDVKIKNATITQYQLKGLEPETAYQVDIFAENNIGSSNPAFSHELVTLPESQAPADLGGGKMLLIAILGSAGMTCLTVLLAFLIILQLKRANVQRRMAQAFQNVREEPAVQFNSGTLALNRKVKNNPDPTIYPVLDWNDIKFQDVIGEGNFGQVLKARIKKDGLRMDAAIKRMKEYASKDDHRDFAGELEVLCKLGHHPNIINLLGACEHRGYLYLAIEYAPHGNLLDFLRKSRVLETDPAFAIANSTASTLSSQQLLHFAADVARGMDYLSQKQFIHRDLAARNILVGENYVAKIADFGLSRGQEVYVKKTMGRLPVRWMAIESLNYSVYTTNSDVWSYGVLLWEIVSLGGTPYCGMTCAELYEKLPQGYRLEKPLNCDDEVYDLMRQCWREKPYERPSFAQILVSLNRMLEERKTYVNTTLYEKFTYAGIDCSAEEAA
# Tie2 [2] = biological target: T2, Tie2; experiment: Tie-2-Kinase HTRF-Assay without kinase preactivation (assay 2); format: biochemical; design: A recombinant fusion protein of GST and the intracellular domains of Tie-2; GST; made in house; host or cells: insect cells (Hi-5); conditions: GST-Tie-2 intracellular domains, no preactivation, 10 μM ATP
# Text: Assay 2: Tie-2-Kinase HTRF-Assay without Kinase Preactivation
# Tie2-inhibitory activity of compounds of the present invention was quantified employing two Tie2 HTRF assay as described in the following paragraphs.
# A recombinant fusion protein of GST and the intracellular domains of Tie-2, expressed in insect cells (Hi-5) and purified by Glutathion-Sepharose affinity chromatography was used as kinase. Alternatively, commercially available GST-Tie2-fusion protein (Upstate Biotechnology, Dundee, Scotland) can be used As substrate for the kinase reaction the biotinylated peptide biotin-Ahx-[…] (C-terminus in amid form) was used which can be purchased e.g. from the company Biosynthan GmbH (Berlin-Buch, Germany). Detection of phosphorylated product is achieved specifically by a trimeric detection complex consisting of the phosphorylated substrate, streptavidin-XLent (SA-XLent) which binds to biotin, and Europium Cryptate-labeled anti-phosphotyrosine antibody PT66 which binds to phosphorylated tyrosine.
# The reaction was stopped by the addition of 5 μl of an aqueous buffer (25 mM Hepes/NaOH pH 7.5, 0.28% (w/v) bovine serum albumin) containing EDTA (90 mM) and the HTRF (Homogeneous Time Resolved Fluorescence) detection reagents streptavidine-XLent (0.2 μM, from Cis Biointernational, Marcoule, France) and PT66-Eu-Chelate (0.3 ng/μl; a europium-chelate labelled anti-phospho-tyrosine antibody from Perkin Elmer).
# as §1, with “substrate peptide” for “substrate”, “substrate peptide.” for “substrate.”
# Target sequence in this assay (Q02763 770-1124 limits assumed): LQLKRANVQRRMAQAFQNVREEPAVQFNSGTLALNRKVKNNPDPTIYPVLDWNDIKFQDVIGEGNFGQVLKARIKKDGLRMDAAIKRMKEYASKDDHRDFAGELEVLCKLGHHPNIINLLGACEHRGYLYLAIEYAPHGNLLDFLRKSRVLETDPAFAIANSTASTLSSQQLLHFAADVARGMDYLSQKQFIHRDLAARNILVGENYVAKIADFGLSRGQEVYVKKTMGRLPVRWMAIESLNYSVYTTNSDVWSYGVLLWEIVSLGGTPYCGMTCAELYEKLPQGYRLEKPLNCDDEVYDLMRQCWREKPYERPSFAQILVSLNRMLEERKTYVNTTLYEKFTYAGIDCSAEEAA
# T1 sequence (P10721 589-937 limits assumed): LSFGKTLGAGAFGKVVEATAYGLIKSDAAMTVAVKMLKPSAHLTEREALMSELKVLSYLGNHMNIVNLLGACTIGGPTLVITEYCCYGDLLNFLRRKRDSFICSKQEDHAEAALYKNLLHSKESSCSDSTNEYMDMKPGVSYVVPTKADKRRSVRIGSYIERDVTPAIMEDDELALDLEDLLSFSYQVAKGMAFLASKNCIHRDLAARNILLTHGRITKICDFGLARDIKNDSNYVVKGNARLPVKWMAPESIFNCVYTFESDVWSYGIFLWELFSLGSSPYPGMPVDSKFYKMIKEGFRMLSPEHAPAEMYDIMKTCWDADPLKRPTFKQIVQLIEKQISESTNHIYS
Structure (SMILES),IC50 (human c-kit) [nM],Selectivity vs. cKit (human c-kit),IC50 (Tie2 [1]) [nM],IC50 (Tie2 [2]) [nM]
"CCN(CC)C(=O)C1(c2cc(-c3ccc(NC(=O)Nc4cccc(C(F)(F)F)c4)cc3)c3c(N)nn(C)c3n2)CC1 [Example 1.11, 1-(3-Amino-1-methyl-4-{4-[3-(3-trifluoromethyl-phenyl)-ureido]-phenyl}-1H-pyrazolo[3,4-b]pyridin-6-yl)-cyclopropanecarboxylic acid diethylamide]",1000 to 10000,24,≤ 100,≤ 100
"CNC(=O)C1(c2cc(-c3ccc(NC(=O)Nc4cccc(C(F)(F)F)c4)cc3)c3c(N)nn(C)c3n2)CC1 [Example 1.4, 1-(3-Amino-1-methyl-4-{4-[3-(3-trifluoromethyl-phenyl)-ureido]-phenyl}-1H-pyrazolo[3,4-b]pyridin-6-yl)-cyclopropanecarboxylic acid methylamide]",100 to 1000,9,100 to 1000,≤ 100
"Cn1nc(N)c2c(-c3ccc(NC(=O)Nc4cccc(C(F)(F)F)c4)cc3)cc(C3(C(=O)NCCN4CCOCC4)CC3)nc21 [Example 1.8, 1-(3-Amino-1-methyl-4-{4-[3-(3-trifluoromethyl-phenyl)-ureido]-phenyl}-1H-pyrazolo[3,4-b]pyridin-6-yl)-cyclopropanecarboxylic acid (2-morpholin-4-yl-ethyl)-amide]",1000 to 10000,15,≤ 100,100 to 1000
"Cn1nc(N)c2c(-c3ccc(NC(=O)Nc4cccc(C(F)(F)F)c4)cc3)cc(C3(C(=O)NC4CC4)CC3)nc21 [Example 1.12, 1-(3-Amino-1-methyl-4-{4-[3-(3-trifluoromethyl-phenyl)-ureido]-phenyl}-1H-pyrazolo[3,4-b]pyridin-6-yl)-cyclopropanecarboxylic acid cyclopropylamide]",1000 to 10000,>100,≤ 100,≤ 100
"CC(C)NC(=O)C1(c2cc(-c3ccc(NC(=O)Nc4cccc(C(F)(F)F)c4)cc3)c3c(N)nn(C)c3n2)CC1 [Example 1.6, 1-(3-Amino-1-methyl-4-{4-[3-(3-trifluoromethyl-phenyl)-ureido]-phenyl}-1H-pyrazolo[3,4-b]pyridin-6-yl)-cyclopropanecarboxylic acid isopropyl-amide]",1000 to 10000,>100,≤ 100,≤ 100
"CN(C)CCNC(=O)C1(c2cc(-c3ccc(NC(=O)Nc4cccc(C(F)(F)F)c4)cc3)c3c(N)nn(C)c3n2)CC1 [Example 1.9, 1-(3-Amino-1-methyl-4-{4-[3-(3-trifluoromethyl-phenyl)-ureido]-phenyl}-1H-pyrazolo[3,4-b]pyridin-6-yl)-cyclopropanecarboxylic acid (2-dimethylamino-ethyl)-amide]",100 to 1000,10,100 to 1000,≤ 100
"Cn1nc(N)c2c(-c3ccc(NC(=O)Nc4cccc(C(F)(F)F)c4)cc3)cc(C3(C(=O)NCCO)CC3)nc21 [Example 1.14, 1-(3-Amino-1-methyl-4-{4-[3-(3-trifluoromethyl-phenyl)-ureido]-phenyl}-1H-pyrazolo[3,4-b]pyridin-6-yl)-cyclopropanecarboxylic acid (2-hydroxy-ethyl)-amide]",100 to 1000,11,100 to 1000,≤ 100
"Cn1nc(N)c2c(-c3ccc(NC(=O)Nc4cccc(C(F)(F)F)c4)cc3)cc(C3(C(N)=O)CC3)nc21 [Example 2.1, 1-(3-Amino-1-methyl-4-{4-[3-(3-trifluoromethyl-phenyl)-ureido]-phenyl}-1H-pyrazolo[3,4-b]pyridin-6-yl)-cyclopropanecarboxylic acid amide]",100 to 1000,6,≤ 100,≤ 100
"Cn1nc(N)c2c(-c3ccc(NC(=O)Nc4cccc(C(F)(F)F)c4)cc3)cc(C3(C(=O)N4CCCC4)CC3)nc21 [Example 1.13, 1-(4-{3-Amino-1-methyl-6-[1-(pyrrolidine-1-carbonyl)-cyclopropyl]-1H-pyrazolo[3,4-b]pyridin-4-yl}-phenyl)-3-(3-trifluoromethyl-phenyl)-urea]",1000 to 10000,>100,≤ 100,≤ 100
"CN(C)C(=O)C1(c2cc(-c3ccc(NC(=O)Nc4cccc(C(F)(F)F)c4)cc3)c3c(N)nn(C)c3n2)CC1 [Example 1.10, 1-(3-Amino-1-methyl-4-{4-[3-(3-trifluoromethyl-phenyl)-ureido]-phenyl}-1H-pyrazolo[3,4-b]pyridin-6-yl)-cyclopropanecarboxylic acid dimethylamide]",1000 to 10000,12,≤ 100,≤ 100

# More lines, now with the values ahead:
IC50 (human c-kit) [nM],Selectivity vs. cKit (human c-kit),IC50 (Tie2 [1]) [nM],IC50 (Tie2 [2]) [nM],Structure (SMILES)
1000 to 10000,20,≤ 100,≤ 100,"Cn1nc(N)c2c(-c3ccc(NC(=O)Nc4cccc(C(F)(F)F)c4)cc3)cc(C3CCC3)nc21 [Example 6.1, 1-[4-(3-Amino-6-cyclobutyl-1-methyl-1H-pyrazolo[3,4-b]pyridin-4-yl)-phenyl]-3-(3-trifluoromethyl-phenyl)-urea]"
≤ 100,0.26,100 to 1000,≤ 100,"Cc1ccc(F)c(NC(=O)Nc2ccc(-c3ccnc4[nH]nc(N)c34)cc2)c1 [PA3, 1-[4-(3-Amino-1H-pyrazolo[3,4-b]pyridin-4-yl)-phenyl]-3-(2-fluoro-5-methyl-phenyl)-urea, reference compound]"
1000 to 10000,>100,≤ 100,≤ 100,Cc1ccc(F)c(NC(=O)Nc2ccc(-c3cc(C4(C(=O)N5CCCC5)CC4)nc4c3c(N)nn4C)cc2)c1 [Example 4.3]
100 to 1000,1.6,≤ 100,≤ 100,"Cn1nc(N)c2c(-c3ccc(NC(=O)Nc4cccc(C(F)(F)F)c4)cc3)ccnc21 [PA4, 1-[4-(3-Amino-1-methyl-1H-pyrazolo[3,4-b]pyridin-4-yl)-phenyl]-3-(3-trifluoromethyl-phenyl)-urea, reference compound]"
1000 to 10000,19,–,≤ 100,"CN(C)C(=O)C[C@@H]1C[C@H](c2cc(-c3ccc(NC(=O)Nc4cccc(C(F)(F)F)c4)cc3)c3c(N)nn(C)c3n2)C1(C)C [Example 8.4, 2-[3-(3-Amino-1-methyl-4-{4-[3-(3-trifluoromethyl-phenyl)-ureido]-phenyl}-1H-pyrazolo[3,4-b]pyridin-6-yl)-2,2-dimethyl-cyclobutyl]-N,N-dimethyl-acetamide]"

# — patent US7825114B2, “Substituted aminopyrazolopyridines and salts thereof, pharmaceutical compositions comprising same, methods of preparing same and uses of same” (Bayer Schering Pharma AG, priority 2006, dated 2010)
